Measured values taken from patent US7074819B2, “Benzopyran or thiobenzopyran derivatives” (Chugai Seiyaku Kabushiki Kaisha, priority 1998, dated 2006).
Where two headings read alike, the source gives them in different places.

Experiments:
MCF-7 cell lines (ATCC) = experiment: Cell growth inhibiting activity (MTT, with 0.1 nM estradiol, 7 days); format: cell-based; details: MCF-7 cells, read-out: IC50 value for inhibiting cell growth of 50%
Method: In this experiment, the cell growth inhibiting activity was determined by using the compounds of Examples 1, 2, 3, 5, 22, 127 and 128 as the test compound and the known anti-estrogenic compound […] having the following structure (see, EP0124369 B1) as the control compound, according to the method described hereinafter.
One day before drug administration, incubated MCF-7 cells were plated in 96-well plate in the concentration of 5×10^3 cells per well. After the 96-well plate was incubated for one day, 0.1 nM of estradiol and the test compound in the given concentration were added to each well. The plate was incubated for 7 days at 37° C. and then MTT solution (Sigma) was added to each well in the amount of 15 μl and allowed to react for 2 hours at 37° C. After the reaction was completed, the solubilizing/stopping solution (constitution: SDS, acetic acid, N,N-dimethylformamide) was added to each well in the amount of 100 μl. Then, the absorption for each well at 570 nm was measured by means of a plate reader. IC50 value for inhibiting cell growth of 50% was calculated from the results as measured and described in the following Table 2.

ovariectomized mice [1] = experiment: Anti-estrogenic activity (subcutaneous administration): inhibition of estradiol-stimulated uterine weight increase; format: in vivo, mice (ICR); details: s.c., 3 days; for Inhibition (%) of the increase of uterine weight by estradiol: 30 μg/mouse in peanut oil, ovariectomized ICR mice given 17β-estradiol-benzoate 0.1 μg/day; for inhibition of the increase of uterine weight by estradiol (in words): 30 μg/mouse, ovariectomized mice given 17β-estradiol
Method: Anti-estrogenic activity of the test compound by subcutaneous administration was determined according to the method described hereinafter. In this experiment, the compounds of Examples 1, 2, 3, 4, 5, 22, 127 and 128 were used as the test compound and the known anti-estrogenic compound ZM189154 was used as the control compound as in Experiment 1.
In this experiment, the test compound or the control compound was dissolved in peanut oil (Sigma) and injected subcutaneously for 3 days, once a day. After 24 hours from the last injection, the test animal was sacrificed and uterus was removed and weighed.

ovariectomized mice [2] = experiment: Anti-estrogenic activity (oral administration): inhibition of estradiol-stimulated uterine weight increase; format: in vivo; details: p.o., 3 days, 10 mg/kg in 5% arabic gum solution; ovariectomized ICR mice given 17β-estradiol-benzoate 0.1 μg/day
Method: Oral anti-estrogenic activity in vivo of the test compound was determined according to the method described hereinafter. In this experiment, the compound of Example 3, 22, 127 and 128 were used as the test compound and the known anti-estrogenic compound ZM189154 was used as the control compound as in Experiment 2.
In this experiment, the test compound or the control compound was suspended in 5% arabic gum solution and orally administered for 3 days, once a day. After 24 hours from the last administration, the test animal was sacrificed and uterus was removed and weighed.

[3] = 7 days at 37° C., absorption at 570 nm

| Molecule | IC50 (MCF-7 cell lines (ATCC); [3]) | Inhibition (%) of the increase of uterine weight by estradiol (ovariectomized mice [1]) | inhibition of the increase of uterine weight by estradiol (in words) (ovariectomized mice [1]) | Inhibition (%) of the increase of uterine weight by estradiol (ovariectomized mice [2]) | IC50 (MCF-7 cell lines (ATCC); Homo sapiens, MCF7, 168 h, 7 days at 37° C., absorption at 570 nm) | IC50 (MCF-7 cell lines (ATCC); Homo sapiens, MCF7, 168 h, 7 days, control compound, (cis)) | IC50 (MCF-7 cell lines (ATCC); Homo sapiens, MCF7, 168 h, 7 days, control compound, (trans)) |
| --- | --- | --- | --- | --- | --- | --- | --- |
| 7-hydroxy-3-(4-hydroxyphenyl)-3-methyl-4-{9-[4-(4,4,5,5,5-pentafluoropentyl)piperazinyl]nonyl}chroman [Example 1] | 60.4 nM | 27.5% | substantially inhibit |  |  |  |  |
| CCCCNC(=N)CCCCCCCCCC[C@H]1c2ccc(O)cc2OC[C@@]1(C)c1ccc(O)cc1 (racemic) [Compound I of Example 2, (3RS,4RS)-7-hydroxy-4-[(11-imino-11-N-butylamino)undecyl]-3-(4-hydroxyphenyl)-3-methylchroman] | 67.5 nM | 30.8% |  |  |  |  |  |
| CCCCN=C(CCCCCCCCCC[C@H]1c2ccc(O)cc2OC[C@@]1(C)c1ccc(O)cc1)NCCCC (racemic) [Compound II of Example 2, (3RS,4RS)-7-hydroxy-4-[(11-N-butylimino-11-N-butylamino)undecyl]-3-(4-hydroxyphenyl)-3-methylchroman] | 1000 nM | −9.3% |  |  |  |  |  |
| CC(C)(C)c1cc(CN2CCN(CCOc3ccc([C@@H]4c5ccc(O)cc5OC[C@@]4(C)c4ccc(O)cc4)cc3)CC2)cc(C(C)(C)C)c1 (racemic) [Example 3, (3RS,4SR)-7-hydroxy-4-{4-{2-{4-{[3,5-bis(t-butyl)phenyl]methyl}piperazinyl}ethoxy}phenyl}-3-(4-hydroxyphenyl)-3-methylchroman] | 54.5 nM | 11.7% |  | 0.6% |  |  |  |
| CN(CCCCC[C@H]1c2ccc(O)cc2OC[C@@]1(C)c1ccc(O)cc1)CCCSCCCC(F)(F)C(F)(F)F (racemic) [Example 4, (3RS,4RS)-7-hydroxy-3-(4-hydroxyphenyl)-4-{5-[N-methyl-N-3-(4,4,5,5,5-pentafluoropentylthio)propylamino]pentyl}-3-methylchroman] |  | 26.4% |  |  |  |  |  |
| [O-][S+](CCCC(F)(F)C(F)(F)F)CCOCCOc1ccc(C2=C(c3ccc(O)cc3)COc3cc(O)ccc32)cc1 (stereo not drawn) [Example 5, 4-{4-{2-[2-(4,4,5,5,5-pentafluoropentylsulfinyl)ethoxy]ethoxy}phenyl}-7-hydroxy-3-(4-hydroxyphenyl)-2H-chromene] |  | 9.8% |  |  | 387 nM |  |  |
| CC1(c2ccc(O)cc2)CSc2cc(O)ccc2C1CCCCCCCCC(CCCC(F)(F)C(F)(F)F)C(=O)O (stereo not drawn) [Example 22, (3′RS,4′RS)-10-[7-hydroxy-3-(4-hydroxyphenyl)-3-methyltbiochroman-4-yl]-2-(4,4,5,5,5-pentafluoropentyl)decanoic acid] | 850 nM | 51.0% | substantially inhibit | 81.3% |  |  |  |
| C[C@]1(c2ccc(O)cc2)CCc2cc(O)ccc2C1CCCCCCCCC[S+]([O-])CCCC(F)(F)C(F)(F)F (stereo partly drawn) [ZM189154, reference compound] |  | 73.8% |  | 41.7% |  | 9.2 nM | 77 nM |
